Source: patent EP1891948A1, “Treatment of neurological and neuropsychological disorders” (Probiodrug AG, priority 2000, dated 2002)

Key:
[1] = cited from earlier work; for anxiety in the elevated plus-maze and social interaction tests: blockade of amygdala NPY Y1R, low stress conditions, Kask et al., 1998b, Sajdyk, 1999
[2] = test system: WistarF/Han (WF) rats; experiment: Social interaction (SI) test with Y1R antagonist pre-treatment (Example 4); type: in vivo; settings: Fig. 10
Method: (§1) Animals. Male WistarF/Han (WF) rats (Central Animal Laboratory, Hannover Medical School, Hannover, Germany, see http://www.mh-hannover.de/institut/tierlabor/wf.htm for details), weighing 330±31 g±SD, were housed in a sound-proof, temperature controlled (24.0±0.5°C) room under specific pathogen free conditions with a 12/12h dark/light cycle (lights on at 07.00 with illumination level of 80 Lux). Food (Altromin lab chow pellets) and tap water were available ad libitum. Under ketamine/xylasine (100/5 mg/kg, i.p.) anesthesia, the rats were fixed in a Kopf stereotaxic frame and implanted with cannulae (Plastic One, Inc., Roanoke, VA, USA) above the lateral ventricle. All research and animal care procedures were approved by the Lower Saxony district government (Hannover, Germany) and followed principles described in the European Community's Council Directive of 24 November 1986 (86/609/EEC).
Surgery and i.c.v. application. […]
Animals were randomly divided into eight experimental groups (n=6-8/group), which completed one SI test of anxiety: (1) aCSF+aCSF+aCSF; (2) BIBP+aCSF+aCSF; (3) aCSF+isoleucyl thiazolidine+aCSF; (4) BIBP+isoleucyl thiazolidine+aCSF; (5) aCSF+aCSF+NPY; (6) BIBP+aCSF+NPY; (7) aCSF+P32/89+NPY; (8) BIBP+isoleucyl thiazolidine+NPY. […] The time spent in active social interaction (SI-time), 1h, and 12h food-intake were measured. […]
Social interaction (SI) test. […] Behavior was monitored using a video camera placed above the field inside the testing/isolation box. The SI behavior of both rats was recorded on-line from a monitor placed outside on top of the box. The following parameters were scored by an observer (HPN) unaware of the substrain of rats: duration of time spent in sniffing, following, crawling under and over other rats, but not passive body contact (resting, sleeping). […]
(§2) Statistical analysis. Data obtained from the measures SI time and 1h food intake were analyzed by one-way (factor: "treatment") ANOVA. […]

[3] = test system: rats; settings: administered into the dorsal periaqueductal gray matter; Kask et al., 1998d; cited from earlier work
[4] = test system: WistarF/Han (WF) rats; experiment: 1h food intake with Y1R antagonist pre-treatment (Example 4); type: in vivo; settings: i.c.v., BIBP3226 100nmol pre-treatment; isoleucyl thiazolidine 50nmol; NPY 0.8nmol; Fig. 11
Method: as §1
(§3) Surgery and i.c.v. application. For surgery, rats were anesthetized and prepared with i.c.v. cannulae (coordinates: A:-0.7mm caudal, L:1.4mm lateral to bregma; and V3.2mm ventral to the skull surface; tooth bar +3.0 above ear bars) using standard stereotaxic procedures as described in detail elsewhere (von Hörsten et al., 1998a,b,c). After a 7-day recovery period, successful ventricle cannulation was confirmed by an angiotensin drinking response (von Hörsten et al., 1998a). Rats showing a positive drinking response (n=56) were then habituated to experimental handling by daily sham injections for seven days.
Animals were randomly divided into eight experimental groups (n=6-8/group), which completed one SI test of anxiety: (1) aCSF+aCSF+aCSF; (2) BIBP+aCSF+aCSF; (3) aCSF+isoleucyl thiazolidine+aCSF; (4) BIBP+isoleucyl thiazolidine+aCSF; (5) aCSF+aCSF+NPY; (6) BIBP+aCSF+NPY; (7) aCSF+P32/89+NPY; (8) BIBP+isoleucyl thiazolidine+NPY. Animals in each group were treated in an identical way in each phase, receiving i.c.v. injections -60mins and -55min before behavioral testing. Experiments spanned two nights with groups counterbalances on both dark cycles. The injection cannula was attached to a Hamilton microsyringe with approximately 30cm of polyethylene tubing and all compounds were infused in a total volume of 5.0µl at a rate of 5.0 µl/min using a TSE multichannel infusion pump (Bad Homburg, Germany). The time spent in active social interaction (SI-time), 1h, and 12h food-intake were measured.
Peptides and Antagonist. Rat neuropeptide Y1-36 was obtained from Polypeptide Laboratories (Wolfenbüttel, Germany). The NPY Y1 receptor antagonist BIBP3226 was purchased from American Peptide Company, Sunnyvale, CA, USA (Cat#:60-1-22B). […]
as §2

[5] = test system: olfactory bulbectomized rats; settings: 7-day i.c.v. administration; Song et al., 1996; cited from earlier work
[6] = test system: WistarF/Han (WF) rats; experiment: 1h and 12h food intake after combined i.c.v. treatment (Example 3); type: in vivo; settings: single agents or combination, isoleucyl thiazolidine 5pmol-500nmol, NPY 50pmol-1.6nmol, Fig. 8
Method: as §1, with “330-370g,” for “330±31 g±SD,”
as §3, with “(n=59)” for “(n=56)”
Animals were randomly divided into two sets of four experimental groups (n=5-6/group), which completed different consecutive SI test of anxiety. […] The time spent in active social interaction (SI-time), 1h and 12h food-intake were measured. […]
Statistical analysis. Data from repeated observations (food intake) were analyzed by two-way analyses of variance for repeated measures (ANOVA) (factors: "substrain" and "food intake" as repeated measure). Data obtained from simple measures such as DP IV activity or SI time were analyzed by one-way (factor: "substrain") ANOVA. […]

[7] = i.c.v. injection, Kask et al. (1996)

Compound	anxiety in the elevated plus-maze and social interaction tests [1]	effect in the elevated plus-maze test [1, 7]	locomotor effect [1, 7]	effect on isoleucyl thiazolidine-induced potentiation of the NPY mediated anxiolytic-like effect on SI behavior ([2]; i.c.v. pre-treatment, BIBP3226 100nmol)	time spent in active social interaction [3]	1h feeding under Y1R blockade [4]	anxiolytic-like effect in the SI test under Y1 receptor blockade ([2]; i.c.v., BIBP3226 100nmol pre-treatment, isoleucyl thiazolidine 50nmol, NPY 0.8nmol)	behavioral and neurotransmitters deficits [5]	amount of food eaten within 1h [6]
NC(=O)NCc1ccc(CNC(=O)[C@@H](CCCN=C(N)N)NC(=O)C(c2ccccc2)c2ccccc2)cc1 [BIB03304]	did not increase anxiety	–	–	–	–	–	–	–	–
NC(N)=NCCC[C@@H](NC(=O)C(c1ccccc1)c1ccccc1)C(=O)NCc1ccc(O)cc1 [BIBP3226]	did not increase anxiety	anxiogenic-like effects	without any locomotor deficit	can block	decreased	only partly affected	–	–	–
NPY: Rat neuropeptide Y1-36 obtained from Polypeptide Laboratories	–	–	–	–	–	only partly mediated by the Y1R	antagonized	attenuated	"u-shaped" dose-dependent feeding effect
